# Read-outs that look alike come from different tables or passages of the source.
# Tests used:
# mitohybrid ribosomes = test: Ribosomal drug susceptibility (MIC) of recombinant bacteria; parameters: MIC, mitohybrid ribosomes: unit not given beside the values; details: for MIC, bacteria with mitohybrid ribosome: Table 10
# bacterial ribosomes = test: as above; parameters: MIC, bacterial ribosomes: unit not given beside the values; details: for MIC, wild type bacteria: Table 10
# cytohybrid ribosomes = test: as above; parameters: MIC, cytohybrid ribosomes: unit not given beside the values; details: for MIC, bacteria with cytohybrid ribosome: Table 10
# [1] = tested on: clinical methicillin resistant Staphylococcus aureus (MRSA) isolates; test: MIC against clinical MRSA isolates, LB microdilution assay
# Procedure: Activity was assessed by determination of minimal inhibitory concentrations (MIC), as described in Pfister et al., Antimicrob. […] Cultures from single colonies were grown in LB medium and used for MIC tests in a microtiter plate format. Starting cultures contained 200 μl of bacterial cells at an optical density of 0.025 at 600 nm, and the respective drug was added in twofold series of dilution.
# E. coli = test: MIC against gram-negative bacteria; assay type: cell-based
# Excerpt: Agents Chemother. 2003, 47:1496-1502.
# [2] = tested on: Cochlear explants from newborn mice; test: Cochleatoxicity in vitro, hair cell loss in cochlear explants; assay type: cell-based
# Procedure: FIG. 1: Cochleatoxicity in vitro
# (a) Dose-response relationship of drug-induced hair cell loss in cochlear explants. Hair cell loss was quantified along the entire length of the explant and plotted against drug concentration. %=% outer hair cells missing.
# Cochlear explants from newborn mice were treated with 0.5 mM aminoglycoside compound for 24 h; subsequently hair cell damage was assessed by epifluorescence microscopy.
# [3] = Staphylococcus aureus, MRSA, MRSA AG038, strain 70-26S Gm^S
# [4] = Staphylococcus aureus, MRSA, MRSA AG041, strain 98-25S Gm^S
# [5] = Staphylococcus aureus, MRSA, MRSA AG043, strain 01-08R Gm^R
# [6] = Staphylococcus aureus, MRSA, MRSA AG044, strain 07-12R Gm^R
# [7] = Staphylococcus aureus, MRSA, MRSA AG045, strain 08-12R Gm^R
# [8] = Staphylococcus aureus, MRSA, MRSA AG053, strain 56-06R Gm^R
# [9] = Escherichia coli, E. coli AG02, clin. isol (Gm^S), read-out: MIC
# [10] = Escherichia coli, E. coli AG03, clin. isol (Gm^R), read-out: MIC
# [11] = Escherichia coli, E. coli AG06, BM13, read-out: MIC
# [12] = Escherichia coli, E. coli AG07, BM13/pIP135, resistance mechanism AAC(3), read-out: MIC
# [13] = Escherichia coli, E. coli AG08, BM13/pIP055, resistance mechanism ANT(2″), read-out: MIC
# [14] = Escherichia coli, E. coli AG09, AAC(6′)-1B, resistance mechanism AAC(6′), read-out: MIC
# [15] = Escherichia coli, E. coli AG36, HB101/pAT197, resistance mechanism ANT(4′), read-out: MIC
# [16] = Escherichia coli, E. coli AG37, HB101/pAG21-1, resistance mechanism APH(3′), read-out: MIC
compound,measurement,setting,value
"CC(=O)O.CC(=O)O.CC(=O)O.CC(=O)O.CN1C(=O)OC2C3OC(OC4C(N)CC(N)C(O)C4O)C(N)CC3OC(OC3OC(CO)C(NC(=O)C(O)CCN)C(O)C3O)C21 [ETH 99, 7′-N,6′-O-Carbonyl-4″-N-[(2S)-4-amino-2-hydroxybutyryl]apramycin tetraacetate]","MIC, bacteria with mitohybrid ribosome",mitohybrid ribosomes,>256.0 µg/mL
same,"MIC, wild type bacteria",bacterial ribosomes,2.0 to 4.0 µg/mL
same,"MIC, bacteria with cytohybrid ribosome",cytohybrid ribosomes,>256.0 µg/mL
CN[C@@H]1[C@@H](O)[C@@H](O[C@@H]2[C@@H](O)[C@H](O[C@H]3OC(CN)=CC[C@H]3N)[C@@H](N)C[C@H]2N)OC[C@]1(C)O [Sisomicin],MIC,[1]; [3],0.25 µg/mL
same,MIC,"[1]; Staphylococcus aureus, MRSA, MRSA AG040, strain 87-26S Gm^S",0.25 µg/mL
same,MIC,[1]; [4],0.25 µg/mL
same,MIC,"[1]; Staphylococcus aureus, MRSA, MRSA AG042, strain 101-06R Gm^R",32 µg/mL
same,MIC,[1]; [5],32 to 64 µg/mL
same,MIC,[1]; [6],8 µg/mL
same,MIC,[1]; [7],4 to 8 µg/mL
same,MIC,"[1]; Staphylococcus aureus, MRSA, MRSA AG046, strain 12-06R Gm^R",> 256 µg/mL
same,MIC,"[1]; Staphylococcus aureus, MRSA, MRSA AG047, strain 18-06R Gm^R",> 256 µg/mL
same,MIC,"[1]; Staphylococcus aureus, MRSA, MRSA AG048, strain 20-06R Gm^R",> 256 µg/mL
same,MIC,"[1]; Staphylococcus aureus, MRSA, MRSA AG049, strain 23-12R Gm^R",8 µg/mL
same,MIC,"[1]; Staphylococcus aureus, MRSA, MRSA AG050, strain 31-06R Gm^R",128 to 256 µg/mL
same,MIC,"[1]; Staphylococcus aureus, MRSA, MRSA AG051, strain 36-06R Gm^R",64 µg/mL
same,MIC,"[1]; Staphylococcus aureus, MRSA, MRSA AG052, strain 53-14I Gm^R",8 µg/mL
same,MIC,[1]; [8],32 µg/mL
same,MIC,E. coli; [9],1 µg/mL
same,MIC,E. coli; [10],32 to 128 µg/mL
same,MIC,E. coli; [11],0.25 µg/mL
same,MIC,E. coli; [12],16 µg/mL
same,MIC,E. coli; [13],8 µg/mL
same,MIC,E. coli; [14],16 µg/mL
same,MIC,E. coli; [15],0.25 µg/mL
same,MIC,E. coli; [16],0.125 µg/mL
"CNC1C(OC2OC(CO)C(NC(=O)C(O)CCN)C(O)C2O)OC2CC(N)C(OC3C(N)CC(N)C(O)C3O)OC2C1O [ETH 105, 4″-N-[(2S)-4-Amino-2-hydroxybutyryl]apramycin]","MIC, bacteria with mitohybrid ribosome",mitohybrid ribosomes,>256.0 µg/mL
same,"MIC, wild type bacteria",bacterial ribosomes,4.0 µg/mL
same,"MIC, bacteria with cytohybrid ribosome",cytohybrid ribosomes,>256.0 µg/mL
Neomycin,MIC,"[1]; MRSA AG038, strain 70-26S Gm^S",0.5 to 1 µg/mL
same,MIC,"[1]; MRSA AG040, strain 87-26S Gm^S",128 µg/mL
same,MIC,"[1]; MRSA AG041, strain 98-25S Gm^S",0.5 to 1 µg/mL
same,MIC,"[1]; MRSA AG042, strain 101-06R Gm^R",128 µg/mL
same,MIC,"[1]; MRSA AG043, strain 01-08R Gm^R",1 to 4 µg/mL
same,MIC,"[1]; MRSA AG044, strain 07-12R Gm^R",0.5 to 1 µg/mL
same,MIC,"[1]; MRSA AG045, strain 08-12R Gm^R",0.5 to 1 µg/mL
same,MIC,"[1]; MRSA AG046, strain 12-06R Gm^R",>256 µg/mL
same,MIC,"[1]; MRSA AG047, strain 18-06R Gm^R",256 µg/mL
same,MIC,"[1]; MRSA AG048, strain 20-06R Gm^R",256 µg/mL
same,MIC,"[1]; MRSA AG049, strain 23-12R Gm^R",>256 µg/mL
same,MIC,"[1]; MRSA AG050, strain 31-06R Gm^R",64 µg/mL
same,MIC,"[1]; MRSA AG051, strain 36-06R Gm^R",64 µg/mL
same,MIC,"[1]; MRSA AG052, strain 53-14I Gm^R",>256 µg/mL
same,MIC,"[1]; MRSA AG053, strain 56-06R Gm^R",0.5 to 1 µg/mL
same,"MIC, mitohybrid ribosomes","mitohybrid ribosomes; Table 7, 72 h incubation",32
same,Hair cell count,"[2]; 0.5 mM aminoglycoside for 24 h, epifluorescence microscopy",almost all hair cells (inner and outer) missing
same,inner and outer hair cells missing / lost,"[2]; 0.5 mM, FIG. 1",> 80%
same,MIC,"E. coli; E. coli AG01, clin. isol. (Gm^S)",8 to 16 µg/mL
same,MIC,"E. coli; E. coli AG02, clin. isol (Gm^S)",4 µg/mL
same,MIC,"E. coli; E. coli AG03, clin. isol (Gm^R)",4 µg/mL
same,MIC,"E. coli; E. coli AG06, BM13",1 µg/mL
same,MIC,"E. coli; E. coli AG07, BM13/pIP135, resistance mechanism AAC(3)",4 µg/mL
same,MIC,"E. coli; E. coli AG08, BM13/pIP055, resistance mechanism ANT(2″)",2 to 4 µg/mL
same,MIC,"E. coli; E. coli AG09, AAC(6′)-1B, resistance mechanism AAC(6′)",8 to 32 µg/mL
same,MIC,"E. coli; E. coli AG36, HB101/pAT197, resistance mechanism ANT(4′)",32 µg/mL
same,MIC,"E. coli; E. coli AG37, HB101/pAG21-1, resistance mechanism APH(3′)",>256 µg/mL
same,"MIC, bacterial ribosomes","bacterial ribosomes; Table 7, 72 h incubation",1
same,"MIC, cytohybrid ribosomes","cytohybrid ribosomes; Table 7, 72 h incubation",1024
"CC(=O)O.CC(=O)O.CC(=O)O.CC(=O)O.CNC1C(OC2OC(CO)C(N)C(O)C2O)OC2CC(N)C(OC3C(N)CC(NC(=O)C(O)CCN)C(O)C3O)OC2C1O [ETH 102, 1-N-[(2S)-4-Amino-2-hydroxybutyryl]apramycin tetraacetate]","MIC, bacteria with mitohybrid ribosome",mitohybrid ribosomes,>256.0 µg/mL
same,"MIC, wild type bacteria",bacterial ribosomes,4.0 µg/mL
same,"MIC, bacteria with cytohybrid ribosome",cytohybrid ribosomes,>256.0 µg/mL
"CC(=O)O.CC(=O)O.CC(=O)O.CC(=O)O.CN[C@@H]1[C@@H](O[C@H]2O[C@H](CO)[C@@H](N)[C@H](O)[C@H]2O)O[C@H]2C[C@@H](NC(=O)[C@@H](O)CCN)[C@@H](O[C@H]3[C@H](O)[C@@H](O)[C@H](N)C[C@@H]3N)O[C@@H]2[C@@H]1O [ETH 100, 2′-N-[(2S)-4-Amino-2-hydroxybutyryl]apramycin tetraacetate]","MIC, bacteria with mitohybrid ribosome",mitohybrid ribosomes,>256.0 µg/mL
same,"MIC, wild type bacteria",bacterial ribosomes,2.0 to 4.0 µg/mL
same,"MIC, bacteria with cytohybrid ribosome",cytohybrid ribosomes,>256.0 µg/mL
CC(=O)O.CC(=O)O.CC(=O)O.CC(=O)O.CNC1C(OC2OC(CO)C(N)C(O)C2O)OC2CC(NC(=O)C(O)CCN3C(=O)c4ccccc4C3=O)C(OC3C(N)CC(N)C(O)C3O)OC2C1O (stereo not shown) [ETH 103],"MIC, bacteria with mitohybrid ribosome",mitohybrid ribosomes,>256.0 µg/mL
same,"MIC, wild type bacteria",bacterial ribosomes,8.0 µg/mL
same,"MIC, bacteria with cytohybrid ribosome",cytohybrid ribosomes,>256.0 µg/mL
NC[C@@H]1O[C@H](O[C@H]2[C@@H](O)[C@H](O[C@@H]3[C@@H](O)[C@H](N)C[C@H](N)[C@H]3O[C@H]3O[C@H](CO)[C@@H](O)[C@H](O)[C@H]3N)O[C@@H]2CO)[C@H](N)[C@@H](O)[C@@H]1O [Paromomycin],MIC,"[1]; MRSA AG040, strain 87-26S Gm^S",>256 µg/mL
same,MIC,"[1]; MRSA AG046, strain 12-06R Gm^R",>256 µg/mL
same,MIC,"[1]; MRSA AG047, strain 18-06R Gm^R",>256 µg/mL
same,MIC,"[1]; MRSA AG048, strain 20-06R Gm^R",>256 µg/mL
same,MIC,"[1]; MRSA AG049, strain 23-12R Gm^R",>256 µg/mL
same,MIC,"[1]; MRSA AG050, strain 31-06R Gm^R",>256 µg/mL
same,MIC,"[1]; MRSA AG051, strain 36-06R Gm^R",>256 µg/mL
same,MIC,"[1]; MRSA AG052, strain 53-14I Gm^R",>256 µg/mL
same,MIC,"[1]; Staphylococcus aureus, MRSA",> 256 µg/mL
same,MIC,[1]; [3],2 to 4 µg/mL
same,MIC,[1]; [4],4 µg/mL
same,MIC,[1]; [5],4 to 8 µg/mL
same,MIC,[1]; [6],2 to 4 µg/mL
same,MIC,[1]; [7],4 µg/mL
same,MIC,[1]; [8],2 to 4 µg/mL
same,MIC,"E. coli; Escherichia coli, E. coli AG01, clin. isol. (Gm^S), read-out: MIC",16 to 32 µg/mL
same,MIC,E. coli; [9],8 to 16 µg/mL
same,MIC,E. coli; [10],8 to 16 µg/mL
same,MIC,E. coli; [11],2 µg/mL
same,MIC,E. coli; [12],8 µg/mL
same,MIC,E. coli; [13],4 to 8 µg/mL
same,MIC,E. coli; [14],8 to 16 µg/mL
same,MIC,E. coli; [15],256 µg/mL
same,MIC,E. coli; [16],> 256 µg/mL
